Experimental data taken from patent publication US11655459B2, “Methods for reprogramming somatic cells” (Whitehead Institute for Biomedical Research, priority 2003, dated 2023).
Several values for one entry are separate records, joined by “and”; a condition that tells them apart may be missing. Identical values can stand only once.

Test system: fibroblasts derived from tail biopsies of mice that carry the inducible Oct4 transgene
Test: Nuclear transfer experiment: in vitro development of clones derived from Oct4-induced fibroblasts
Type: cell-based, mouse
Protocol: Nuclear transfer was performed on fibroblasts derived from tail biopsies of mice that carry the inducible Oct4 transgene. Dox induction was for 24 hours prior to nuclear transfer. Cloned embryos were then activated and cultured to the blastocyst stage to derive ES cells as described previously (Hochedlinger and Jaenisch, 2002). […] [table]

[1] = Dox induction 24 hours prior to nuclear transfer, fraction of eggs with pronucleus formation, single experiment, listed as Dox
[2] = Oct4 induced, Expt. #3 and #4 together

Compound: C[C@H]1c2cccc(O)c2C(=O)C2=C(O)[C@]3(O)C(=O)C(C(N)=O)=C(O)[C@@H](N(C)C)[C@@H]3[C@@H](O)[C@@H]21 [doxycycline]
- Blastocysts (% PN) [1]: 27% and 21%
- ES lines (% PN) [1]: 5% and 9%
- Blastocysts (number) (Dox induction 24 hours prior to nuclear transfer, single experiment): 10
- ES lines (number) (Dox induction 24 hours prior to nuclear transfer, single experiment, listed as Dox): 2 and 4
- Blastocysts (% PN), average of experiments [2]: 24%
- ES lines (% PN), average of experiments [2]: 7%
